Measured values taken from PubChem BioAssay (NCI).
Where “and” joins values, the source holds several entries; their conditions need not be identical. Equal entries are not always repeated.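 Exposure lasted 48 hours, with cells grown in 96-well plates and compounds tested at five concentrations. Abbreviation: GI50, concentration required for 50% inhibition of growth. TGI marks complete inhibition of growth.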 Calls of active or inactive are those of the source. No stated cut-off is given here; in the data, active means GI50 below about 0.43 µM; inactive means the rest.

Tests used:
Experiment in all cases: inhibition of tumour cell growth, NCI panel, 48 h
M19-MEL melanoma = test system: M19-MEL melanoma
DMS 273 small cell lung = test system: DMS 273 small cell lung
HOP-18 NSCLC = test system: HOP-18 NSCLC
LXFL 529 NSCLC = test system: LXFL 529 NSCLC
T-47D breast = test system: T-47D breast
PC-3 prostate = test system: PC-3 prostate
NCI/ADR-RES ovarian = test system: NCI/ADR-RES ovarian
MDA-MB-231 breast = test system: MDA-MB-231 breast
MCF7 breast = test system: MCF7 breast

## CCOC(=O)c1[nH]c(COC(C)=O)c2c1CCCCCCCCCC2
M19-MEL melanoma
  TGI: > 100 µM
DMS 273 small cell lung
  TGI: > 100 µM
HOP-18 NSCLC
  TGI: > 100 µM
LXFL 529 NSCLC
  TGI: > 100 µM

## NC(N)=NS(=O)(=O)c1ccc(Nc2c3ccccc3nc3c(C(=O)Nc4ccc(S(N)(=O)=O)cc4)cccc23)cc1
M19-MEL melanoma
  TGI: > 100 µM
DMS 273 small cell lung
  TGI: > 100 µM
HOP-18 NSCLC
  TGI: > 100 µM
LXFL 529 NSCLC
  TGI: 78.5 µM

## O=Cc1c(O)c(C(=O)Nc2ccc3[nH]c(=O)[nH]c3c2)cc2ccccc12
M19-MEL melanoma
  TGI: > 100 µM
DMS 273 small cell lung
  TGI: > 100 µM
HOP-18 NSCLC
  TGI: > 100 µM
LXFL 529 NSCLC
  TGI: > 100 µM

## CC1(C)C2C=CC1C(=O)CC2 (stereo not given)
DMS 273 small cell lung
  TGI: > 100 µM
HOP-18 NSCLC
  TGI: > 100 µM
LXFL 529 NSCLC
  TGI: > 100 µM

## Cc1cc(C)cc(NC(N)=S)c1
M19-MEL melanoma
  TGI: > 100 µM
DMS 273 small cell lung
  TGI: > 100 µM
LXFL 529 NSCLC
  TGI: > 100 µM

## Cc1cc(Cl)ccc1NC(=O)CC1SC(=Nc2ccccc2Cl)NC1=O (stereo not given)
M19-MEL melanoma
  TGI: > 100 µM
DMS 273 small cell lung
  TGI: > 100 µM
HOP-18 NSCLC
  TGI: > 100 µM
LXFL 529 NSCLC
  TGI: > 100 µM

## Cc1cccc(NC(=O)c2cccc([N+](=O)[O-])c2O)c1C
T-47D breast
  TGI: > 100 µM
PC-3 prostate
  TGI: > 100 µM
NCI/ADR-RES ovarian
  TGI: > 100 µM
MDA-MB-231 breast
  TGI: > 100 µM
MCF7 breast
  TGI: 81.2 µM
M19-MEL melanoma
  TGI: 79.1 µM
DMS 273 small cell lung
  TGI: 97.7 µM
HOP-18 NSCLC
  TGI: > 100 µM
LXFL 529 NSCLC
  TGI: > 100 µM

## COC(=O)Nc1nc2ccc(Br)cc2[nH]1
M19-MEL melanoma
  TGI: > 100 µM
DMS 273 small cell lung
  TGI: > 100 µM
HOP-18 NSCLC
  TGI: > 100 µM
LXFL 529 NSCLC
  TGI: > 100 µM

## Cc1cccc(C)c1NC(=O)C(=O)Nn1c(NN)nc2ccccc2c1=O
M19-MEL melanoma
  TGI: > 100 µM
DMS 273 small cell lung
  TGI: > 100 µM
HOP-18 NSCLC
  TGI: > 100 µM
LXFL 529 NSCLC
  TGI: > 100 µM

## COc1cccc(NC(=O)/C(Cc2nc3ccccc3nc2C)=N/NC(=O)C[n+]2ccccc2)c1
M19-MEL melanoma
  TGI: > 100 µM
DMS 273 small cell lung
  TGI: > 100 µM
HOP-18 NSCLC
  TGI: > 100 µM
LXFL 529 NSCLC
  TGI: > 100 µM

## CC(C)OP(=O)(NC(=S)c1ccccc1)OC(C)C
M19-MEL melanoma
  TGI: > 100 µM
DMS 273 small cell lung
  TGI: > 100 µM
LXFL 529 NSCLC
  TGI: > 100 µM

## Cn1cc2ccccc2c1-c1nc(F)nc(OCC(=O)[C@H]2CCC3[C@@H]4CCC5=CC(=O)CC[C@]5(C)C4[C@@H](O)C[C@@]32C)n1 (stereo not given in full)
M19-MEL melanoma
  TGI: 14.9 µM
DMS 273 small cell lung
  TGI: 36.1 µM
HOP-18 NSCLC
  TGI: 29.2 µM
LXFL 529 NSCLC
  TGI: 9.59 µM

## C=C(c1ccccc1)[C@@]1(O)CC[C@@H]1N(CC#N)Cc1ccccc1
T-47D breast
  TGI: 38.2 µM
PC-3 prostate
  TGI: 64.3 µM
NCI/ADR-RES ovarian
  TGI: 43.8 µM
MDA-MB-231 breast
  TGI: 27.5 µM
M19-MEL melanoma
  TGI: 57.1 µM
DMS 273 small cell lung
  TGI: 39.7 µM
HOP-18 NSCLC
  TGI: 28 µM
LXFL 529 NSCLC
  TGI: 29.5 µM

## O=c1cccccc1[O-].O=c1cccccc1[O-].O=c1cccccc1[O-].[La+3]
DMS 273 small cell lung
  GI50: 5.98 µM
  TGI: > 100 µM

## CC(=O)OCC1OC(n2c(-c3ccc(C)cc3)cc(-c3ccccc3)c(C#N)c2=O)C(OC(C)=O)C(OC(C)=O)C1OC(C)=O (stereo not given)
M19-MEL melanoma
  TGI: > 100 µM
LXFL 529 NSCLC
  TGI: > 100 µM

## S=P(N1CC1)(N1CC1)N1CC1
T-47D breast
  GI50: 45.5 µM
  TGI: 950 µM and 913 µM
PC-3 prostate
  GI50: 310 µM
  TGI: 805 µM and 834 µM
NCI/ADR-RES ovarian
  GI50: 53.8 µM
  TGI: 511 µM and 225 µM
MDA-MB-231 breast
  GI50: 529 µM
  TGI: 678 µM and 777 µM
MCF7 breast
  TGI: 311 µM and 550 µM
M19-MEL melanoma
  GI50: 25.7 µM
  TGI: 63 µM and 438 µM
DMS 273 small cell lung
  GI50: 2.76 µM
  TGI: 37.1 µM and 290 µM
HOP-18 NSCLC
  GI50: 41.5 µM
  TGI: 640 µM
LXFL 529 NSCLC
  GI50: 21.9 µM
  TGI: 40 µM and 314 µM

## COC(C)(C)C/C=C/C(C)=C/C=C/C(C)=C\C=C\C(C)=C\C=C\C=C(C)\C=C\C=C(C)\C=C\C=C(C)\C=C\CC(C)(C)OC
M19-MEL melanoma
  GI50: > 150 µg/mL
  TGI: > 150 µg/mL
DMS 273 small cell lung
  GI50: > 150 µg/mL
  TGI: > 150 µg/mL
LXFL 529 NSCLC
  outcome: inactive

## C=CCC1C(=O)CC2(C)CC(=O)C(CC=C)C12C (stereo not given)
M19-MEL melanoma
  TGI: > 100 µM
DMS 273 small cell lung
  TGI: > 100 µM
HOP-18 NSCLC
  TGI: > 100 µM
LXFL 529 NSCLC
  TGI: > 100 µM

## NCCCNCCCCNC(=O)C(O)NC(=O)CCCCCCN=C(N)N (stereo not given)
T-47D breast
  GI50: 2130 µM
  TGI: > 5000 µM
PC-3 prostate
  GI50: 1590 µM
  TGI: > 5000 µM
NCI/ADR-RES ovarian
  GI50: 2190 µM
  TGI: > 5000 µM
MDA-MB-231 breast
  GI50: > 2570 µM
  TGI: > 5000 µM
MCF7 breast
  GI50: 1750 µM
  TGI: 750 µM and > 5000 µM
M19-MEL melanoma
  TGI: 750 µM
DMS 273 small cell lung
  TGI: > 750 µM
HOP-18 NSCLC
  TGI: 744 µM

## NC(N)=NS(=O)(=O)c1ccc(NCCc2c3ccccc3nc3ccccc23)cc1
M19-MEL melanoma
  TGI: > 100 µM
DMS 273 small cell lung
  TGI: > 100 µM
LXFL 529 NSCLC
  TGI: > 100 µM

## COc1cc2c(cc1OC)/C(=C\c1ccccc1N)C(=O)OC2
M19-MEL melanoma
  TGI: 39.2 µM
DMS 273 small cell lung
  TGI: 25.5 µM
HOP-18 NSCLC
  TGI: 26.8 µM
LXFL 529 NSCLC
  TGI: 17.7 µM

## CN(C)c1ccc(/C=c2\sc3nc4ccccc4n3c2=O)cc1
M19-MEL melanoma
  TGI: > 100 µM
DMS 273 small cell lung
  TGI: > 100 µM
HOP-18 NSCLC
  TGI: > 100 µM
LXFL 529 NSCLC
  TGI: > 100 µM

## Cn1cc(C(=O)C[n+]2ccccc2)c2ccccc21
M19-MEL melanoma
  TGI: > 100 µM
DMS 273 small cell lung
  TGI: > 100 µM

## CN(C)CC/[N+]([O-])=C(/c1ccccc1)C12CC3CC(CC(C3)C1)C2
M19-MEL melanoma
  TGI: 27.2 µM
HOP-18 NSCLC
  TGI: 35.6 µM
LXFL 529 NSCLC
  TGI: 39.1 µM

## O=C(c1ccccc1)c1cn(/N=C\c2ccccc2)c(=O)nc1-c1ccccc1
M19-MEL melanoma
  TGI: > 100 µM
HOP-18 NSCLC
  TGI: > 100 µM
LXFL 529 NSCLC
  TGI: > 100 µM
